In patent US10858365B2, “Triazolo-pyrimidine compounds and uses thereof” (Dizal (Jiangsu) Pharmaceutical Co., Ltd., priority 2018, dated 2020) one finds IC50 data, which are given here for 20 compounds.

Assay type in all cases: cell-based
Assay [1] deals with hA1 (Homo sapiens (Human), UniProt P30542). The assay can be described thus: FLIPR inhibition assay in hADORA1/CHO (hA1 expressing) cells. The settings on record: hADORA1/CHO cells, FLIPR calcium, adenosine stimulation; read-out: cAMP & FLIPR IC50 (nM) hA1. Here is the method: hADORA1/CHO (hA1 expressing) cells (Genscript) were plated at 1×10^4 cells/well into 384-well polystyrene plates one day before starting the experiment. On the day of experiment, the supernatant was discard and replaced with 40 µL of dye (FLIPR calcium 5 Assay Kit) per well and the plates were incubated for 60 mins at 37° C. plus 5% CO2. Then testing compounds were added at different concentrations for FLIPR™ inhibition assay. After a 400 s incubation with compound, […] adenosine was added into the cells, and the signal was captured by FLIPR.

Assay [2] has as its target hA2b (Homo sapiens (Human), UniProt P29275). The assay can be described thus: cAMP inhibition assay in hA2b/CHO cells. The conditions noted are these: adenosine stimulation, read-out: cAMP & FLIPR IC50 (nM) hA2b. As for the experimental part:
(§1) hA2a/CHO, hA2b/CHO and mA2a/CHO (Genscript) were plated at 5×10^3 cells/well into 384-well polystyrene plates at the day of experiment. Compounds were pre-incubated with cells for 30 min at 37° C., 5% CO2. Then […] adenosine was added to the cells and incubated for 30 min at 37° C., 5% CO2. Detection reagent (CISBIO) was added and the plates were incubated for 60 min at room temperature. The signal was captured by Envision.

In assay [3] the target is mA2a (Mus musculus (Mouse), UniProt Q60613). In words: cAMP inhibition assay in mA2a/CHO cells. The conditions noted are these: adenosine stimulation, read-out: cAMP & FLIPR IC50 (nM) mA2a. Here is the method:
as §1

Assay [4] deals with hA2a (Homo sapiens (Human), UniProt P29274). In words: cAMP inhibition assay in hA2a/CHO cells. The settings on record: adenosine stimulation, read-out: cAMP & FLIPR IC50 (nM) hA2a. As for the experimental part: as §1
FLIPR™ and cAMP inhibition activities of exemplary compounds in different adenosine receptor over-expressing cell lines are shown in Table 4 below.

Sequence of hA2b (P29275 whole entry): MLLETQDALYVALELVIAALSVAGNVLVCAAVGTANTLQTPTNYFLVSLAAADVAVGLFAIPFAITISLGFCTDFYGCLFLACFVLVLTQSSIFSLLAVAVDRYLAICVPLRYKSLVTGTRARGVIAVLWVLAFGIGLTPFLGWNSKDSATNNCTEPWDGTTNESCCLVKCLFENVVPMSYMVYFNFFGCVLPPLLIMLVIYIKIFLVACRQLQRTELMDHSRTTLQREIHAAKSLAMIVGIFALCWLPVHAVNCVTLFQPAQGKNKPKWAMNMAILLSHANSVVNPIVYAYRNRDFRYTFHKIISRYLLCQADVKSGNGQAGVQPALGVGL
Sequence of mA2a (Q60613 whole entry): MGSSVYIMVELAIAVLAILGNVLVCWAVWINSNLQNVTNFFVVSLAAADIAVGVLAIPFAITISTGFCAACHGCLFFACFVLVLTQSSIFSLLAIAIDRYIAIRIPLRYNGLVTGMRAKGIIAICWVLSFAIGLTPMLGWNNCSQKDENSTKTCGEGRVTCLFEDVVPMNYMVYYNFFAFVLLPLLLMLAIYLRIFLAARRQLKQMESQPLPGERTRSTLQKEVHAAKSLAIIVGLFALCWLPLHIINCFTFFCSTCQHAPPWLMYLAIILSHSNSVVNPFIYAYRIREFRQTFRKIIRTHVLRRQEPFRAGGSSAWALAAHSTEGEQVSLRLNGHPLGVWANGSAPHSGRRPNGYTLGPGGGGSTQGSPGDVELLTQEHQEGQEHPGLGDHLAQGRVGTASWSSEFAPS
Sequence of hA1 (P30542 whole entry): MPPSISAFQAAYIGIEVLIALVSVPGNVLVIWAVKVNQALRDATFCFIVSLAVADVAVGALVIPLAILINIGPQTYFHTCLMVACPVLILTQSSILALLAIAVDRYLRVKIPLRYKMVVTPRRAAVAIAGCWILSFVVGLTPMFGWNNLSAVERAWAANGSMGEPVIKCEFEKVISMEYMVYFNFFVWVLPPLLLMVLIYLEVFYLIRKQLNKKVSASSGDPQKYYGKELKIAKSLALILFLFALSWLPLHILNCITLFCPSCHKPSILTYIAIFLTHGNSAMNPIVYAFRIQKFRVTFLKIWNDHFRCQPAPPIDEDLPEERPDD
Sequence of hA2a (P29274 whole entry): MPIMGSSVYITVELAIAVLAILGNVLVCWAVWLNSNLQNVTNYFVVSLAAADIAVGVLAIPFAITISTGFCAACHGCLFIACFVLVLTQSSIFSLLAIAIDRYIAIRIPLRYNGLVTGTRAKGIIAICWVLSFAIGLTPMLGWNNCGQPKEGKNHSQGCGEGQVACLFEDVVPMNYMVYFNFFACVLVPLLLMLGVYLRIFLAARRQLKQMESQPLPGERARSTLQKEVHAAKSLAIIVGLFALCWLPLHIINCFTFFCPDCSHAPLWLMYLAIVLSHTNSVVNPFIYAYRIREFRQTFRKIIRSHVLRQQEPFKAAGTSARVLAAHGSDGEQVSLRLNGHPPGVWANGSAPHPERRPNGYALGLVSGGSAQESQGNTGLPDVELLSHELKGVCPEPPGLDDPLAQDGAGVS

For the compound `Nc1nc(-c2ccc(F)cc2)c(-c2ccnc(C(F)(F)F)c2)c2nc(Cc3c(F)cccc3F)nn12` [Example 4, 2-[(2,6-difluorophenyl)methyl]-7-(4-fluorophenyl)-8-[2-(trifluoromethyl)pyridin-4-yl]-[1,2,4]triazolo[1,5-c]pyrimidin-5-amine], the IC50 amounted to 511 nM in assay [1], 254 nM in assay [2], 24 nM in assay [3] and 52 nM in assay [4].

Consider `Cc1cc(-c2c(-c3ccc(F)cc3)nc(N)n3nc(Cc4cccc(Cl)n4)nc23)ccn1` [Example 15, 2-[(6-chloropyridin-2-yl)methyl]-7-(4-fluorophenyl)-8-(2-methylpyridin-4-yl)-[1,2,4]triazolo[1,5-c]pyrimidin-5-amine], for which the IC50 in assay [1] stood at 27 nM; in assay [2], 582 nM; in assay [3] it was 88 nM; in assay [4], 46 nM.

For `Cc1nccc(-c2c(-c3ccc(F)cc3)nc(N)n3nc(Cc4c(F)cccc4F)nc23)c1C` [Example 16, 2-(2,6-difluorobenzyl)-8-(2,3-dimethylpyridin-4-yl)-7-(4-fluorophenyl)-[1,2,4]triazolo[1,5-c] pyrimidin-5-amine], the IC50 in assay [1] worked out at 205 nM; in assay [2] it was 125 nM; in assay [3] it was 758 nM; in assay [4], 174 nM.

Take `Cc1cc(-c2c(-c3ccc(F)cc3)nc(N)n3nc(Cc4cccc(N(C)C)n4)nc23)ccn1` [Example 17, 2-((6-(dimethylamino)pyridin-2-yl)methyl)-7-(4-fluorophenyl)-8-(2-methylpyridin-4-yl)-[1,2,4]triazolo[1,5-f]pyrimidin-5-amine]: the IC50 in assay [1] stood at 22 nM; in assay [2] it was 4790 nM; in assay [3] it was 51 nM; in assay [4], 43 nM.

As for `Nc1nc(-c2ccc(F)cc2)c(-c2ccc(=O)n(C3CCOC3)c2)c2nc(Cc3c(F)cccc3F)nn12` (centres unmarked) [Example 23, 5-(5-amino-2-(2,6-difluorobenzyl)-7-(4-fluorophenyl)-[1,2,4]triazolo[1,5-c]pyrimidin-8-yl)-1-(tetrahydrofuran-3-yl)pyridin-2(1H)-one], the IC50 in assay [1] amounted to 26 nM; in assay [2], 2060 nM; in assay [3], 2.9 nM; in assay [4], 7.7 nM.

Consider `Cc1ccc(-c2nc(N)n3nc(Cc4c(F)cccc4F)nc3c2-c2ccc(=O)n(C)c2)cn1` [Example 24, 5-[5-amino-2-[(2,6-difluorophenyl)methyl]-7-(6-methylpyridin-3-yl)-[1,2,4]triazolo[1,5-c]pyrimidin-8-yl]-1-methyl-1,2-dihydropyridin-2-one], for which the IC50 in assay [1] stood at 12 nM; in assay [2] it was 631 nM; in assay [3], 162 nM; in assay [4], 58 nM.

Take `Cc1cnc(-c2nc(N)n3nc(Cc4c(F)cccc4F)nc3c2-c2ccc(=O)n(C)c2)o1` [Example 26, 5-(5-amino-2-(2,6-difluorobenzyl)-7-(5-methyloxazol-2-yl)-[l,2,4]triazolo[l,5-c]pyrimidin-8-yl)-1-methylpyridin-2(1H)-one]: the IC50 in assay [1] amounted to 33 nM; in assay [2] it was 457 nM; in assay [3], 34 nM; in assay [4], 15 nM.

Regarding `Cc1coc(-c2nc(N)n3nc(Cc4c(F)cccc4F)nc3c2-c2ccc(=O)n(C)c2)n1` [Example 27, 5-(5-amino-2-(2,6-difluorobenzyl)-7-(4-methyloxazol-2-yl)-[1,2,4]triazolo[1,5-c]pyrimidin-8-yl)-1-methylpyridin-2(1H)-one], the IC50 in assay [1] is 112 nM; in assay [2], 10000 nM; in assay [3], 245 nM; in assay [4], 139 nM.

Turning to `Cn1cc(-c2c(Cl)nc(N)n3nc(Cc4c(F)cccc4F)nc23)ccc1=O` [Example 28, 5-(5-amino-7-chloro-2-(2,6-difluorobenzyl)-[1,2,4]triazolo[1,5-c]pyrimidin-8-yl)-1-methylpyridin-2(1H)-one], the IC50 in assay [1] came to 1150 nM; in assay [2] it was 6420 nM; in assay [3], 217 nM; in assay [4], 158 nM.

Turning to `Cc1cc(-c2c(-c3ccc(F)cc3)nc(N)n3nc(Cc4ncccc4F)nc23)cn(C)c1=O` [Example 29, 5-(5-amino-7-(4-fluorophenyl)-2-((3-fluoropyridin-2-yl)methyl)-[1,2,4]triazolo[1,5-c]pyrimidin-8-yl)-l,3-dimethylpyridin-2(1H)-one], the IC50 in assay [1] was 4.3 nM; in assay [2], 91 nM; in assay [3], 5.1 nM; in assay [4] it was 3.8 nM.

On to `Cn1nc(-c2c(-c3ccc(F)cc3)nc(N)n3nc(Cc4ncccc4F)nc23)ccc1=O` [Example 30, 6-(5-amino-7-(4-fluorophenyl)-2-((3-fluoropyridin-2-yl)methyl)-[1,2,4]triazolo[1,5-f]pyrimidin-8-yl)-2-methylpyridazin-3(2H)-one], for which the IC50 in assay [1] is 16 nM; in assay [2] it was 160 nM; in assay [3] it was 25 nM; in assay [4], 5.9 nM.

Turning to `Cc1cc(-c2c(-c3ncco3)nc(N)n3nc(Cc4c(F)cccc4F)nc23)cc(C)n1` [Example 33, 2-[(2,6-difluorophenyl)methyl]-8-(2,6-dimethylpyridin-4-yl)-7-(1,3-oxazol-2-yl)-[1,2,4]triazolo[1,5-c]pyrimidin-5-amine], the IC50 in assay [1] came to 6940 nM; in assay [2] it was 10000 nM; in assay [3], 109 nM; in assay [4], 18 nM.

In the case of `Cn1cc(-c2c(-c3ccc(F)cc3)nc(N)n3nc(Cc4cccc(N)n4)nc23)ccc1=O` [Example 35, 5-(5-amino-2-((6-aminopyridin-2-yl)methyl)-7-(4-fluorophenyl)-[1,2,4]triazolo[1,5-c]pyrimidin-8-yl)-1-methylpyridin-2(1H)-one], the IC50 in assay [1] was 35 nM; in assay [2] it was 173 nM; in assay [3], 23 nM; in assay [4], 27 nM.

Consider `Nc1nc(-c2ccc(F)cc2)c(-c2ccc(=O)n(C3CC3)c2)c2nc(Cc3ncccc3F)nn12` [Example 36, 5-(5-amino-7-(4-fluorophenyl)-2-((3-fluoropyridin-2-yl)methyl)-[1,2,4]triazolo[1,5-c]pyrimidin-8-yl)-1-cyclopropylpyridin-2(1H)-one], for which the IC50 in assay [1] was found to be 45 nM; in assay [2], 408 nM; in assay [3] it was 31 nM; in assay [4], 20 nM.

For the compound `Nc1cc(-c2c(-c3ccc(F)cc3)nc(N)n3nc(Cc4ncccc4F)nc23)ccn1` [Example 38, 8-(2-aminopyridin-4-yl)-7-(4-fluorophenyl)-2-((3-fIuoropyridin-2-yl)methyl)-[1,2,4]triazolo[1,5-c]pyrmidin-5-amine], the IC50 is 8.6 nM in assay [1], 38 nM in assay [2], 263 nM in assay [3] and 41 nM in assay [4].

With `Cn1cc(-c2c(-c3ccc(F)c(F)c3)nc(N)n3nc(Cc4ncccc4F)nc23)ccc1=O` [Example 39, 5-[5-amino-7-(3,4-difluorophenyl)-2-[(3-fluoropyridin-2-yl)methyl]-[1,2,4]triazolo[1,5-c]pyrimidin-8-yl]-1-methyl-1,2-dihydropyridin-2-one], the concentration for half-maximal inhibition (IC50) in assay [1] came to 15 nM; in assay [2], 235 nM; in assay [3], 39 nM; in assay [4], 18 nM.

Regarding `Cn1cc(-c2c(-c3cccc(F)c3)nc(N)n3nc(Cc4ncccc4F)nc23)ccc1=O` [Example 40, 5-(5-amino-7-(3-fluorophenyl)-2-((3-fluoropyridin-2-yl)methyl)-[1,2,4]triazolo[1,5-c]pyrimidin-8-yl)-1-methylpyridin-2(1H)-one], the half-inhibitory concentration (IC50) was determined as 18 nM in assay [1], 72 nM in assay [2], 15 nM in assay [3] and 5.2 nM in assay [4].

Take `Cn1cc(-c2c(-c3ccc(F)cc3)nc(N)n3nc(Cc4nccs4)nc23)ccc1=O` [Example 42, 5-[5-amino-7-(4-fluorophenyl)-2-[(1,3-thiazol-2-yl)methyl]-[1,2,4]triazolo[1,5-c]pyrimidin-8-yl]-1-methyl-1,2-dihydropyridin-2-one]: the IC50 in assay [1] turned out to be 6.6 nM; in assay [2], 206 nM; in assay [3] it was 13 nM; in assay [4], 7.9 nM.

For the compound `CNc1cc(-c2c(-c3ccc(F)cc3)nc(N)n3nc(Cc4ncccc4F)nc23)ccn1` [Example 43, 7-(4-fluorophenyl)-2-((3-fluoropyridin-2-yl)methyl)-8-(2-(methylamino)pyridin-4-yl)-[1,2,4]triazolo[1,5-c]pyrimidin-5-amine], the IC50 was found to be 24 nM in assay [1], 12 nM in assay [2], 41 nM in assay [3] and 19 nM in assay [4].

`Cn1cc(-c2c(-c3nccs3)nc(N)n3nc(Cc4c(F)cccc4F)nc23)ccc1=O` [Example 44, 5-(5-amino-2-(2,6-difluorobenzyl)-7-(thiazol-2-yl)-[1,2,4]triazolo[1,5-c]pyrimidin-8-yl)-l-methyl pyridin-2(lH)-one]: the IC50 in assay [1] worked out at 13 nM; in assay [2], 97 nM; in assay [3] it was 5.9 nM; in assay [4], 4.3 nM.
